From publication PMC6931124, “NPY1R-targeted peptide-mediated delivery of a dual PPARα/γ agonist to adipocytes enhances adipogenesis and prevents diabetes progression” (Molecular Metabolism, 2019)

What was measured:
PPARγ = experiment: PPAR reporter gene assay (luciferase); assay type: cell-based
Protocol: HEK293 cells stably expressing NPY1R C-terminally fused to eYFP were seeded into white 96-well plates, grown to 70–80% confluence, and transfected using Lipofectamine 2000 transfection reagent according to the manufacturer's protocol. For luciferase reporter gene assays, 250 ng reporter plasmid, positive control plasmid or negative control plasmid (Cignal PPAR Reporter (luc) Kit), 250 ng PPARγ expression vector, and 250 ng RXRα expression vector were applied in addition to 0.75 μl of Lipofectamine 2000 transfection reagent per well. For selectivity assays, HEK293 cells without stable NPY1R-eYFP transfection and HEK293 NPY1R-eYFP cells without PPARγ transfection were used. After 24 h of transfection, the cells were treated with tesa or peptides for an additional 24 h. […] Luciferase assays were performed using the Dual-Luciferase System Kit according to the manufacturer's instructions. The relative firefly luciferase activity was normalized by the corresponding Renilla luciferase activity, the luciferase activity of the cells transfected with the negative control plasmid, and the DMSO vehicle control. The assays were performed in at least three independent experiments.
Furthermore, plasmids coding for PPARγ and RXRα were transfected. Because PPARγ binds as a heterodimer with RXRα to PPRE-responsive elements, RXRα is needed for PPARγ activity.
Figure 5 Transcriptional activity of the PPAR reporter gene. […] The depicted values represent mean ± SEM from n ≥ 3 independent experiments. All measurements were normalized to the transcriptional activity of DMSO-treated cells expressing all factors (set to […]). Statistical significance was determined by one-way analysis of variance (ANOVA) followed by Dunnett's multiple comparison test, *≤0.05, **p ≤ 0.01, ***p ≤ 0.001.

[1] = cited from earlier work
Source text: The dual PPARα/γ agonist tesaglitazar (tesa), in contrast, contains a carboxyl function suitable for synthesis. […] The clinical investigation of tesa was discontinued in phase III because of safety concerns regarding ...

Ketone bodies = assay type: in vivo; details: db/db mice, 2.5 μM/kg/day, 8 days; n = 5
Protocol: (§1) All of the experiments were performed according to the animal ethical laws of the state Saxony, Germany, and were approved by the local animal ethics review board (Landesdirektion Sachsen, Leipzig, Germany). Female db/db mice 12–15 weeks of age were purchased from Taconic (Denmark) and housed in groups of 5 in temperature- and humidity-controlled facilities in a 12 h:12 h light–dark cycle and had free access to tap water and food (regular chow, Sniff, Soest, Germany). Three out of seven groups served as controls (N = 15, see Table 1). The 5 db/db mice were untreated and 10 db/db mice were vehicle treated either orally or intraperitoneally (i.p.). […]
All of the mice were monitored for 9 days during the treatment period. Body weight, food intake, and water uptake were recorded daily and body composition (lean body mass and whole body fat mass) was recorded at the beginning, middle, and end of the study in the conscious mice using an EchoMRI system (Echo Medical Systems, Houston, TX, USA). At the beginning and end of the treatment period, the HbA1c levels were determined from 5 μl of whole venous blood samples using an automated chemical analyzer at the Institute of Laboratory Medicine and Clinical Chemistry and beta-ketone using an automated glucose monitor (FreeStyle Precision H, Abbott GmbH, Ludwigshafen, Germany). […]

Plasma triglycerides = assay type: in vivo; details: db/db mice, 2.5 μmol/kg/day, 8 days; n = 5
Protocol: as §1, with “(i.p.). One additional group (n = 5) of lean C57BL/6NTac mice was used as a metabolically healthy control group.” for “(i.p.).”
(§2) Serum insulin (mouse insulin ELISA, Mercodia, Uppsala, Sweden), adiponectin (mouse adiponectin ELISA, AdipoGen, San Diego, CA, USA), leptin (mouse leptin ELISA, Crystal Chem, Downers Grove, IL, USA), and Mcp-1 (mouse/rat CCL2/JE/Mcp-1 Quantikine ELISA, R&D Systems, Minneapolis, MN, USA) levels were analyzed via ELISA according to the manufacturer's instructions. Serum concentrations of TG, FFA, and cholesterol were measured by an automatic chemical analyzer at the Institute of Laboratory Medicine and Clinical Chemistry.

Serum Mcp-1 = assay type: in vivo; details: db/db mice, 2.5 μmol/kg/day, 8 days; ELISA; n = 5
Protocol: as §1, with “(i.p.). One additional group (n = 5) of lean C57BL/6NTac mice was used as a metabolically healthy control group.” for “(i.p.).”
as §2

CCO[C@@H](Cc1ccc(OCCc2ccc(OS(C)(=O)=O)cc2)cc1)C(=O)O [tesa, tesaglitazar]
transcriptional activity in absence of PPARγ (PPARγ; 100 μM, HEK293 NPY1R without PPARγ transfection): complete loss of transcriptional activity
transcriptional activity in absence of NPY1R (PPARγ; 100 μM, HEK293 without NPY1R, with PPARγ): not influenced by NPY1R expression
concentration-response curve / potency in reporter assay (PPARγ; HEK293 NPY1R, PPARγ, RXRα, 24 h): demonstrated a saturation curve
relative transcriptional activity (luciferase) (PPARγ; HEK293 stably expressing NPY1R, transfected with PPAR reporter, PPARγ, RXRα, 24 h treatment, n ≥ 3): Concentration-dependent luciferase activity was detected
insulin resistance ([1]; mice and humans, ref [41, 42, 43]): reduce insulin resistance in mice and humans
clinical safety ([1]; phase III, ref [16, 44]): discontinued in phase III because of safety concerns regarding renal dysfunction
ketone bodies (Ketone bodies): normalization of the plasma concentration
triglycerides (Plasma triglycerides): normalization
Mcp-1 levels (Serum Mcp-1): no significant effect
